According to US20260262643A1, “HERBICIDAL BENZOXAZINES” (FMC CORPORATION, priority 2022, published 2026):

Assays:
[1] = tested on: soybean; assay: Test C postemergence; type: in vivo, Glycine max; conditions: 10 days, 0 to 100 scale (0 no effect, 100 complete control)
Method in brief: (§1)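 Test material, in non-phytotoxic solvent with surfactant, was sprayed on the soil directly after seeding (preemergence) or on young plants of 2–10 cm with one to two leaves (postemergence). Greenhouse, 10 days; 0–100 visual control scale.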

[2] = tested on: blackgrass; assay: Test C preemergence; type: in vivo, Alopecurus myosuroides; conditions: for Blackgrass plant response rating: preemergence, 0 to 100 scale (0 no effect, 100 complete control)
Method in brief: as §1

[3] = tested on: ryegrass, Italian; assay: Test C preemergence; type: in vivo, Lolium multiflorum; conditions: for Ryegrass, Italian plant response rating: preemergence, 0 to 100 scale (0 no effect, 100 complete control)
Method in brief: as §1

[4] = tested on: oat, wild; assay: Test C postemergence; type: in vivo, Avena fatua; conditions: 10 days, 0 to 100 scale (0 no effect, 100 complete control)
Method in brief: as §1

[5] = tested on: ragweed; assay: Test C preemergence; type: in vivo, Ambrosia artemisiifolia; conditions: for Ragweed plant response rating: preemergence, 0 to 100 scale (0 no effect, 100 complete control)
Method in brief: as §1

[6] = tested on: pigweed, palmer; assay: Test C preemergence; type: in vivo, Amaranthus palmeri; conditions: for Pigweed, Palmer plant response rating: preemergence, 0 to 100 scale (0 no effect, 100 complete control)
Method in brief: as §1

[7] = tested on: corn; assay: Test C preemergence; type: in vivo, Zea mays; conditions: for Corn plant response rating: preemergence, 0 to 100 scale (0 no effect, 100 complete control)
Method in brief: as §1

[8] = tested on: ducksalad; assay: Test D flooded paddy test; type: in vivo, Heteranthera limosa; conditions: 250 g ai/ha, applied to paddy water, visual rating after 13 to 14 days, scale 0 to 100 (0 no effect, 100 complete control)
Method in brief: (§2)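 Plants grown to the 2-leaf stage; pots flooded to 3 cm above soil at treatment and held at that depth throughout. Test compounds applied directly to the paddy water. After 13 to 14 days in a greenhouse, response was rated visually versus controls on a 0 (no effect) to 100 (complete control) scale.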

[9] = tested on: blackgrass; assay: Test C postemergence; type: in vivo, Alopecurus myosuroides; conditions: 10 days, 0 to 100 scale (0 no effect, 100 complete control)
Method in brief: as §1

[10] = tested on: ragweed; assay: Test C postemergence; type: in vivo, Ambrosia artemisiifolia; conditions: 10 days, 0 to 100 scale (0 no effect, 100 complete control)
Method in brief: as §1

[11] = tested on: soybean; assay: Test C preemergence; type: in vivo, Glycine max; conditions: for Soybean plant response rating: preemergence, 0 to 100 scale (0 no effect, 100 complete control)
Method in brief: as §1

[12] = tested on: oat, wild; assay: Test C preemergence; type: in vivo, Avena fatua; conditions: for Oat, Wild plant response rating: preemergence, 0 to 100 scale (0 no effect, 100 complete control)
Method in brief: as §1

[13] = tested on: ryegrass, Italian; assay: Test C postemergence; type: in vivo, Lolium multiflorum; conditions: 10 days, 0 to 100 scale (0 no effect, 100 complete control)
Method in brief: as §1

[14] = tested on: wheat; assay: Test C postemergence; type: in vivo, Triticum aestivum; conditions: 10 days, 0 to 100 scale (0 no effect, 100 complete control)
Method in brief: as §1

[15] = tested on: wheat; assay: Test C preemergence; type: in vivo, Triticum aestivum; conditions: for Wheat plant response rating: preemergence, 0 to 100 scale (0 no effect, 100 complete control)
Method in brief: as §1

[16] = tested on: pigweed, palmer; assay: Test C postemergence; type: in vivo, Amaranthus palmeri; conditions: 10 days, 0 to 100 scale (0 no effect, 100 complete control)
Method in brief: as §1

[17] = tested on: kochia; assay: Test C preemergence; type: in vivo, Bassia scoparia; conditions: for Kochia plant response rating: preemergence, 0 to 100 scale (0 no effect, 100 complete control)
Method in brief: as §1

[18] = tested on: rice; assay: Test D flooded paddy test; type: in vivo, Oryza sativa; conditions: 250 g ai/ha, applied to paddy water, visual rating after 13 to 14 days, scale 0 to 100 (0 no effect, 100 complete control)
Method in brief: as §2

[19] = tested on: foxtail, giant; assay: Test C postemergence; type: in vivo, Setaria faberi; conditions: 10 days, 0 to 100 scale (0 no effect, 100 complete control)
Method in brief: as §1

[20] = tested on: corn; assay: Test C postemergence; type: in vivo, Zea mays; conditions: 10 days, 0 to 100 scale (0 no effect, 100 complete control)
Method in brief: as §1

[21] = tested on: horseweed; assay: Test C postemergence; type: in vivo, Erigeron canadensis; conditions: 10 days, 0 to 100 scale (0 no effect, 100 complete control)
Method in brief: as §1

[22] = tested on: sedge, umbrella; assay: Test D flooded paddy test; type: in vivo, Cyperus difformis; conditions: 250 g ai/ha, applied to paddy water, visual rating after 13 to 14 days, scale 0 to 100 (0 no effect, 100 complete control)
Method in brief: as §2

[23] = tested on: foxtail, giant; assay: Test C preemergence; type: in vivo, Setaria faberi; conditions: for Foxtail, Giant plant response rating: preemergence, 0 to 100 scale (0 no effect, 100 complete control)
Method in brief: as §1

[24] = tested on: barnyardgrass; assay: Test C preemergence; type: in vivo, Echinochloa crusgalli; conditions: for Barnyardgrass plant response rating: preemergence, 0 to 100 scale (0 no effect, 100 complete control)
Method in brief: as §1

[25] = tested on: kochia; assay: Test C postemergence; type: in vivo, Bassia scoparia; conditions: 10 days, 0 to 100 scale (0 no effect, 100 complete control)
Method in brief: as §1

[26] = tested on: galium; assay: Test C postemergence; type: in vivo, Galium aparine; conditions: 10 days, 0 to 100 scale (0 no effect, 100 complete control)
Method in brief: as §1

[27] = tested on: barnyardgrass; assay: Test D flooded paddy test; type: in vivo, Echinochloa crus-galli; conditions: 250 g ai/ha, applied to paddy water, visual rating after 13 to 14 days, scale 0 to 100 (0 no effect, 100 complete control)
Method in brief: as §2

[28] = tested on: barnyardgrass; assay: Test C postemergence; type: in vivo, Echinochloa crusgalli; conditions: 10 days, 0 to 100 scale (0 no effect, 100 complete control)
Method in brief: as §1

[29] = Preemergence, 125 g ai/ha, 0 to 100 scale, 0 no effect, 100 complete control

CCc1ncn(-c2cccc(C(=O)N3CC(C(F)(F)F)Oc4c(Cl)cccc43)c2)n1 (centres unmarked) [Compound 345]
Plant response rating, Soybean ([1]; 500 g ai/ha, postemergence): 100
Plant response rating, Soybean ([1]; Postemergence, 125 g ai/ha): 100
Blackgrass plant response rating ([2]; 500 g ai/ha): 90
Plant response rating, Blackgrass [2, 29]: 80
Ryegrass, Italian plant response rating ([3]; 500 g ai/ha): 90
Plant response rating, Ryegrass, Italian [3, 29]: 80
Plant response rating, Oat, Wild ([4]; 500 g ai/ha, postemergence): 30
Plant response rating, Oat, Wild ([4]; Postemergence, 125 g ai/ha): 20
Ragweed plant response rating ([5]; 500 g ai/ha): 0
Plant response rating, Ragweed [5, 29]: 0
Pigweed, Palmer plant response rating ([6]; 500 g ai/ha): 100
Plant response rating, Pigweed, Palmer [6, 29]: 100
Corn plant response rating ([7]; 500 g ai/ha): 30
Plant response rating, Corn [7, 29]: 10
Plant response rating, Ducksalad (Flood) [8]: 65
Plant response rating, Blackgrass ([9]; 500 g ai/ha, postemergence): 90
Plant response rating, Blackgrass ([9]; Postemergence, 125 g ai/ha): 50
Plant response rating, Ragweed ([10]; 500 g ai/ha, postemergence): 60
Plant response rating, Ragweed ([10]; Postemergence, 125 g ai/ha): 40
Soybean plant response rating ([11]; 500 g ai/ha): 100
Plant response rating, Soybean [11, 29]: 30
Oat, Wild plant response rating ([12]; 500 g ai/ha): 80
Plant response rating, Oat, Wild [12, 29]: 10
Plant response rating, Ryegrass, Italian ([13]; 500 g ai/ha, postemergence): 80
Plant response rating, Ryegrass, Italian ([13]; Postemergence, 125 g ai/ha): 60
Plant response rating, Wheat ([14]; 500 g ai/ha, postemergence): 30
Plant response rating, Wheat ([14]; Postemergence, 125 g ai/ha): 20
Wheat plant response rating ([15]; 500 g ai/ha): 10
Plant response rating, Wheat [15, 29]: 0
Plant response rating, Pigweed, Palmer ([16]; 500 g ai/ha, postemergence): 80
Plant response rating, Pigweed, Palmer ([16]; Postemergence, 125 g ai/ha): 60
Kochia plant response rating ([17]; 500 g ai/ha): 100
Plant response rating, Kochia [17, 29]: 50
Plant response rating, Rice (Flood) [18]: 10
Plant response rating, Foxtail, Giant ([19]; 500 g ai/ha, postemergence): 90
Plant response rating, Foxtail, Giant ([19]; Postemergence, 125 g ai/ha): 60
Plant response rating, Corn ([20]; 500 g ai/ha, postemergence): 80
Plant response rating, Corn ([20]; Postemergence, 125 g ai/ha): 30
Plant response rating, Horseweed ([21]; 500 g ai/ha, postemergence): 30
Plant response rating, Horseweed ([21]; Postemergence, 125 g ai/ha): 0
Plant response rating, Sedge, Umbrella (Flood) [22]: 60
Foxtail, Giant plant response rating ([23]; 500 g ai/ha): 100
Plant response rating, Foxtail, Giant [23, 29]: 90
Barnyardgrass plant response rating ([24]; 500 g ai/ha): 100
Plant response rating, Barnyardgrass [24, 29]: 60
Plant response rating, Kochia ([25]; 500 g ai/ha, postemergence): 90
Plant response rating, Kochia ([25]; Postemergence, 125 g ai/ha): 80
Plant response rating, Galium ([26]; 500 g ai/ha, postemergence): 100
Plant response rating, Galium ([26]; Postemergence, 125 g ai/ha): 100
Plant response rating, Barnyardgrass (Flood) [27]: 40
Plant response rating, Barnyardgrass ([28]; 500 g ai/ha, postemergence): 60
Plant response rating, Barnyardgrass ([28]; Postemergence, 125 g ai/ha): 30

CC(C)c1cc(C(=O)N2C[C@H](C)Oc3c(Cl)cccc32)cc(-n2cncn2)c1 [Compound 316]
Plant response rating, Soybean ([1]; 500 g ai/ha, postemergence): 100
Plant response rating, Soybean ([1]; Postemergence, 125 g ai/ha): 100
Blackgrass plant response rating ([2]; 500 g ai/ha): 90
Blackgrass plant response rating ([2]; Test C, 125 g ai/ha): 50
Ryegrass, Italian plant response rating ([3]; 500 g ai/ha): 90
Ryegrass, Italian plant response rating ([3]; Test C, 125 g ai/ha): 70
Plant response rating, Oat, Wild ([4]; 500 g ai/ha, postemergence): 20
Plant response rating, Oat, Wild ([4]; Postemergence, 125 g ai/ha): 0
Ragweed plant response rating ([5]; 500 g ai/ha): 0
Ragweed plant response rating ([5]; Test C, 125 g ai/ha): 0
Pigweed, Palmer plant response rating ([6]; 500 g ai/ha): 90
Pigweed, Palmer plant response rating ([6]; Test C, 125 g ai/ha): 60
Corn plant response rating ([7]; 500 g ai/ha): 40
Corn plant response rating ([7]; Test C, 125 g ai/ha): 10
Plant response rating, Ducksalad (Flood) [8]: 0
Plant response rating, Blackgrass ([9]; 500 g ai/ha, postemergence): 70
Plant response rating, Blackgrass ([9]; Postemergence, 125 g ai/ha): 50
Plant response rating, Ragweed ([10]; 500 g ai/ha, postemergence): 0
Plant response rating, Ragweed ([10]; Postemergence, 125 g ai/ha): 0
Soybean plant response rating ([11]; 500 g ai/ha): 50
Soybean plant response rating ([11]; Test C, 125 g ai/ha): 0
Oat, Wild plant response rating ([12]; 500 g ai/ha): 40
Oat, Wild plant response rating ([12]; Test C, 125 g ai/ha): 20
Plant response rating, Ryegrass, Italian ([13]; 500 g ai/ha, postemergence): 80
Plant response rating, Ryegrass, Italian ([13]; Postemergence, 125 g ai/ha): 30
Plant response rating, Wheat ([14]; 500 g ai/ha, postemergence): 20
Plant response rating, Wheat ([14]; Postemergence, 125 g ai/ha): 10
Wheat plant response rating ([15]; 500 g ai/ha): 20
Wheat plant response rating ([15]; Test C, 125 g ai/ha): 0
Plant response rating, Pigweed, Palmer ([16]; 500 g ai/ha, postemergence): 60
Plant response rating, Pigweed, Palmer ([16]; Postemergence, 125 g ai/ha): 30
Kochia plant response rating ([17]; 500 g ai/ha): 0
Kochia plant response rating ([17]; Test C, 125 g ai/ha): 0
Plant response rating, Rice (Flood) [18]: 0
Plant response rating, Foxtail, Giant ([19]; 500 g ai/ha, postemergence): 90
Plant response rating, Foxtail, Giant ([19]; Postemergence, 125 g ai/ha): 10
Plant response rating, Corn ([20]; 500 g ai/ha, postemergence): 70
Plant response rating, Corn ([20]; Postemergence, 125 g ai/ha): 20
Plant response rating, Horseweed ([21]; 500 g ai/ha, postemergence): 0
Plant response rating, Horseweed ([21]; Postemergence, 125 g ai/ha): 0
Plant response rating, Sedge, Umbrella (Flood) [22]: 0
Foxtail, Giant plant response rating ([23]; 500 g ai/ha): 100
Foxtail, Giant plant response rating ([23]; Test C, 125 g ai/ha): 80
Barnyardgrass plant response rating ([24]; 500 g ai/ha): 90
Barnyardgrass plant response rating ([24]; Test C, 125 g ai/ha): 30
Plant response rating, Kochia ([25]; 500 g ai/ha, postemergence): 80
Plant response rating, Kochia ([25]; Postemergence, 125 g ai/ha): 30
Plant response rating, Galium ([26]; 500 g ai/ha, postemergence): 90
Plant response rating, Galium ([26]; Postemergence, 125 g ai/ha): 40
Plant response rating, Barnyardgrass (Flood) [27]: 0
Plant response rating, Barnyardgrass ([28]; 500 g ai/ha, postemergence): 50
Plant response rating, Barnyardgrass ([28]; Postemergence, 125 g ai/ha): 10
